Data as given in patent US10597388B2, “Pyridazinone herbicides” (FMC CORPORATION, priority 2014, dated 2020).

Key:
Assay in all cases: Test D controlled growth environment herbicide test, pre- and postemergence
Assay type in all cases: in vivo
[1] = tested on: bluegrass (annual bluegrass, Poa annua)
How it was run: (§1)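 Species sown in silt loam and sprayed preemergence, or grown in peat-based medium to 2–18 cm (1- to 4-leaf stage) and sprayed postemergence, with compounds in non-phytotoxic solvent plus surfactant. Visual injury scored versus controls after 14–21 d in a controlled environment, 0 (no effect) to 100 (complete control).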

[2] = tested on: barley, spring (spring barley, Hordeum vulgare)
How it was run: as §1

[3] = tested on: Russian thistle (Salsola kali)
How it was run: as §1

[4] = tested on: field poppy (Papaver rhoeas)
How it was run: as §1

[5] = tested on: mustard, wild (wild mustard, Sinapis arvensis)
How it was run: as §1

[6] = tested on: radish, wild (wild radish, Raphanus raphanistrum)
How it was run: as §1

kochia (Kochia scoparia) = tested on: kochia (Kochia scoparia)
How it was run: as §1

[7] = tested on: oat, wild (wild oat, Avena fatua)
How it was run: as §1

[8] = tested on: pigweed (Amaranthus retroflexus)
How it was run: as §1

[9] = tested on: blackgrass (Alopecurus myosuroides)
How it was run: as §1

[10] = tested on: speedwell (bird's-eye speedwell, Veronica persica)
How it was run: as §1

[11] = tested on: wheat, spring (spring wheat, Triticum aestivum)
How it was run: as §1

[12] = tested on: barley, winter (winter barley, Hordeum vulgare)
How it was run: as §1

[13] = Postemergence, 31 g ai/ha, scale 0 to 100 (0 no effect, 100 complete control)
[14] = Postemergence, 125 g ai/ha, visual rating on scale 0 (no effect) to 100 (complete control), 14 to 21 d
[15] = Postemergence, 250 g ai/ha, scale 0 to 100 (0 no effect, 100 complete control)
[16] = Preemergence, 62 g ai/ha, scale 0 to 100 (0 no effect, 100 complete control)
[17] = Preemergence, 125 g ai/ha, scale 0 to 100 (0 no effect, 100 complete control)
[18] = Preemergence, 250 g ai/ha, scale 0 to 100, 0 no effect, 100 complete control
[19] = postemergence, 62 g ai/ha, scale 0 to 100, 0 no effect, 100 complete control

CC(=O)Oc1c(C)nn(C)c(=O)c1-c1c(C)sc2ccc(Cl)cc12 [Compound 108]
80: Plant response rating, Kochia (kochia (Kochia scoparia); [17]) | Plant response rating (scale of 0 to 100), Oat, Wild ([7]; Preemergence, 31 g ai/ha) | Plant response rating (scale of 0 to 100), Oat, Wild ([7]; Preemergence, 62 g ai/ha) | Plant response rating, Oat, Wild [7, 17] | Plant response rating, Blackgrass [9, 18] | Plant response rating, Speedwell [10, 15]
65: Russian Thistle plant response rating [3, 13] | Plant response rating, Field Poppy [4, 14] | Plant response rating, Blackgrass [9, 14] | Plant response rating, Speedwell [10, 19]
50: Plant response rating, Blackgrass [9, 17]
90: Plant response rating, Russian Thistle [3, 15] | Plant response rating, Radish, Wild [6, 15] | Plant response rating, Radish, Wild [6, 18] | Kochia plant response rating (kochia (Kochia scoparia); [13])
25: Plant response rating, Bluegrass [1, 14] | Plant response rating, Wheat, Spring [11, 17]
45: Plant response rating (scale of 0 to 100), Radish, Wild ([6]; Preemergence, 31 g ai/ha) | Plant response rating, Blackgrass [9, 19]
5: Bluegrass plant response rating [1, 13] | Plant response rating (scale of 0 to 100), Mustard, Wild ([5]; Preemergence, 31 g ai/ha) | Barley, Winter plant response rating [12, 13] | Plant response rating, Barley, Winter [12, 19]
10: Plant response rating (scale of 0 to 100), Bluegrass ([1]; Preemergence, 31 g ai/ha) | Plant response rating, Bluegrass [1, 19] | Plant response rating, Barley, Spring [2, 19] | Plant response rating (scale of 0 to 100), Field Poppy ([4]; Preemergence, 31 g ai/ha) | Plant response rating (scale of 0 to 100), Field Poppy ([4]; Preemergence, 62 g ai/ha) | Plant response rating, Barley, Winter [12, 14] | Plant response rating, Barley, Winter [12, 17]
60: Plant response rating (scale of 0 to 100), Mustard, Wild ([5]; Preemergence, 62 g ai/ha) | Plant response rating (scale of 0 to 100), Kochia (kochia (Kochia scoparia); Preemergence, 31 g ai/ha) | Speedwell plant response rating [10, 13]
0: Barley, Spring plant response rating [2, 13] | Plant response rating (scale of 0 to 100), Barley, Spring ([2]; Preemergence, 31 g ai/ha) | Plant response rating, Barley, Spring [2, 16] | Plant response rating, Barley, Spring [2, 17] | Plant response rating, Barley, Spring [2, 18] | Plant response rating (scale of 0 to 100), Russian Thistle ([3]; Preemergence, 31 g ai/ha) | Plant response rating (scale of 0 to 100), Wheat, Spring ([11]; Preemergence, 31 g ai/ha) | Plant response rating (scale of 0 to 100), Barley, Winter ([12]; Preemergence, 31 g ai/ha) | Plant response rating, Barley, Winter [12, 16]
35: Plant response rating, Bluegrass [1, 15] | Plant response rating, Bluegrass [1, 17] | Plant response rating, Blackgrass [9, 16]
30: Plant response rating, Wheat, Spring [11, 15]
85: Plant response rating, Mustard, Wild [5, 18] | Plant response rating, Radish, Wild [6, 14] | Oat, Wild plant response rating [7, 13]
75: Plant response rating, Bluegrass [1, 18] | Plant response rating, Russian Thistle [3, 14] | Plant response rating, Field Poppy [4, 15] | Plant response rating, Mustard, Wild [5, 19] | Radish, Wild plant response rating [6, 13] | Plant response rating, Radish, Wild [6, 19] | Plant response rating, Blackgrass [9, 15]
100: Plant response rating, Russian Thistle [3, 18] | Plant response rating, Field Poppy [4, 17] | Plant response rating, Field Poppy [4, 18] | Plant response rating, Mustard, Wild [5, 15] | Plant response rating (scale of 0 to 100), Radish, Wild ([6]; Preemergence, 62 g ai/ha) | Plant response rating, Radish, Wild [6, 17] | Plant response rating, Kochia (kochia (Kochia scoparia); [14]) | Plant response rating, Kochia (kochia (Kochia scoparia); [15]) | Plant response rating, Kochia (kochia (Kochia scoparia); [18]) | Plant response rating, Kochia (kochia (Kochia scoparia); [19]) | Plant response rating, Oat, Wild [7, 14] | Plant response rating, Oat, Wild [7, 15] | Plant response rating, Pigweed [8, 14] | Plant response rating, Pigweed [8, 15] | Plant response rating (scale of 0 to 100), Pigweed ([8]; Preemergence, 31 g ai/ha) | Plant response rating (scale of 0 to 100), Pigweed ([8]; Preemergence, 62 g ai/ha) | Plant response rating, Pigweed [8, 17] | Plant response rating, Pigweed [8, 18] | Plant response rating, Pigweed [8, 19]
55: Plant response rating, Field Poppy [4, 19]
40: Plant response rating, Wheat, Spring [11, 18]
95: Plant response rating, Mustard, Wild [5, 14] | Plant response rating, Mustard, Wild [5, 17] | Plant response rating (scale of 0 to 100), Kochia (kochia (Kochia scoparia); Preemergence, 62 g ai/ha) | Plant response rating, Oat, Wild [7, 18] | Plant response rating, Oat, Wild [7, 19] | Pigweed plant response rating [8, 13]
70: Plant response rating, Russian Thistle [3, 17] | Plant response rating, Russian Thistle [3, 19] | Mustard, Wild plant response rating [5, 13] | Plant response rating, Speedwell [10, 14]
20: Plant response rating, Barley, Spring [2, 15] | Field Poppy plant response rating [4, 13] | Blackgrass plant response rating [9, 13] | Plant response rating, Wheat, Spring [11, 14] | Plant response rating (scale of 0 to 100), Wheat, Spring ([11]; Preemergence, 62 g ai/ha) | Plant response rating, Wheat, Spring [11, 19] | Plant response rating, Barley, Winter [12, 18]
15: Plant response rating, Bluegrass [1, 16] | Plant response rating, Barley, Spring [2, 14] | Plant response rating (scale of 0 to 100), Russian Thistle ([3]; Preemergence, 62 g ai/ha) | Plant response rating (scale of 0 to 100), Blackgrass ([9]; Preemergence, 31 g ai/ha) | Wheat, Spring plant response rating [11, 13] | Plant response rating, Barley, Winter [12, 15]
